Structures can show the parent of a compound that is named as a salt.
System: human prostate tissue
Test: Inhibition of phenylephrine-induced contraction of human prostate tissue strips
Conditions: dose-ratio method
Experimental: Methods: Prostatic adenomas were obtained at the time of surgery from patients with symptomatic BPH. These were cut into longitudinal strips of 15 mm long and 2-4 mm wide, and suspended in 5 ml organ baths containing Krebs buffer (pH 7.4). The baths were maintained at 37° C. and continuously oxygenated with 5% CO2 and 95% O2. Isometric tension was measured with a Grass Instrument FT03 force transducer interfaced with a computer.
Tissue strips were contracted with varying concentrations of phenylephrine after incubating for 20 minutes in the absence and presence of at least three different concentrations of antagonist. Dose-response curves for phenylephrine were constructed, and the antagonist potency (pA2) was estimated by the dose-ratio method. […] This control was necessary to account for losses of antagonist due to adsorption to the tissue bath and/or metabolism during the time the antagonists were equilibrated with the prostate tissue.

Row | Compound | Human Prostate (pA)
1 | 4-fluoro-4-(8-fluoro-1,3,4,5-tetrahydro-2H-pyrido[4,3-b]indol-2-yl)butyrophenone hydrochloride [Compound A-30360] | 8.72
2 | COc1ccccc1N1CCN(CCCNc2c(C)c(=O)n(C)c(=O)n2C)CC1 [5-Methyl Urapidil, 5-methylurapidil] | 8.38
3 | O=C(CCCN1CCC(NC(=O)c2ccccc2)CC1)c1ccc(Cl)cc1 [Compound 7, 1-[3-(4-chlorobenzoyl)propyl]-4-benzamidopiperidine] | 7.63
4 | O=C(CCCN1CCC(NC(=O)c2ccccc2)CC1)c1ccccc1 [Compound 9, 1-(3-benzoylpropyl)-4-benzamidopiperidine] | 7.41
5 | O=C(NC1CCN(CCc2c[nH]c3ccccc23)CC1)c1ccccc1 [Indoramin] | 7.86
6 | COc1cc2nc(N3CCN(C(=O)c4ccco4)CC3)nc(N)c2cc1OC [Prazosin] | 9.08
7 | C=Cc1sc2ccc(Cl)c3c2c1CN(C)CC3 [SKF-104856, 7-Chloro-2-ethenyl-3,4,5,6-tetrahdyro-4-methylthieno[4,3,2-ef][3]benzazepine] | 7.66
8 | COc1cc2nc(N3CCN(C(=O)C4CCCO4)CC3)nc(N)c2cc1OC (stereo not shown) [Terazosin, 2[4-(Tetrahydro-2-furoyl)piperazinyl]-4-amino-6,7-dimethoxyquinazoline hydrochloride] | 7.30

System: not given
Test: not given
Conditions: not given

Row | Compound | melting point
9 | O=C(CCCN1CCC(NC(=O)c2ccccc2)CC1)c1ccc(Cl)cc1 (as salt: HCl) [Compound 7, 1-[3-(4-chlorobenzoyl)propyl]-4-benzamidopiperidine] | 243 to 244 °C

Target: T1, α1c receptor (Bos taurus, UniProt P18130)
T1 sequence (P18130 1-466): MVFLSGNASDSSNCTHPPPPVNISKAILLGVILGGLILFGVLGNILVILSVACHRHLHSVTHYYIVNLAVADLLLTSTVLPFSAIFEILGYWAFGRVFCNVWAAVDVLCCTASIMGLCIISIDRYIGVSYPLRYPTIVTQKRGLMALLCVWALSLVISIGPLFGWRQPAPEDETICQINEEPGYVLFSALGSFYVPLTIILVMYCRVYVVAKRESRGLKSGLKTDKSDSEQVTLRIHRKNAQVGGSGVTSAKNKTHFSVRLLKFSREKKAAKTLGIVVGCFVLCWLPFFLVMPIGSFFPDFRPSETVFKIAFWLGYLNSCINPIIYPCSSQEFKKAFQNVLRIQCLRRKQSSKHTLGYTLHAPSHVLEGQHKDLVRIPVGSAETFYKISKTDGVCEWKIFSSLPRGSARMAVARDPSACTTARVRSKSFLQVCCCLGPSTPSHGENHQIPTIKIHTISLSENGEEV
Test: not given
Conditions: expressed α1c receptor; cited from earlier work

Row | Compound | fold higher affinity than the α1b-receptor
10 | Cc1ccc(N(CC2=NCCN2)c2cccc(O)c2)cc1 [phentolamine] | 30 fold

Reference: patent publication US6448011B1, “DNA encoding human alpha 1 adrenergic receptors and uses thereof” (Synaptic Pharmaceutical Corporation, priority 1992, dated 2002)
